Test results taken from US20110166149A1, “PTERIDINE DERIVATIVES FOR TREATING RESPIRATORY DISEASE” (TARGEGEN INC., priority 2008, published 2011).
Values joined by “and” are separate entries in the source; they are usually repeats but may differ in a detail not shown here. Equal values may be shown once.

Tests used:
[1] = Aerodynamic particle size of nebulized suspensions, 7 stage impactor (Example 1); type: physicochemical; settings: nebulized suspension
Protocol: 6,7-bis(3-hydroxyphenyl)-pteridine-2,4-diamine (Compound A) was formulated as a 20% suspension in a 5% tyloxapol solution in water. Particle size reduction was achieved using a colloid mill (magicLAB®, MK module, for 6 hours @ 12,000 rpm, while maintaining a temperature below 50° C.). Samples at 4, 0.4, 0.04 and 0.004% of compound A were prepared by dilution with DI water.
Nebulizations of the suspensions were carried out using a Pari LC Plus @ 3 LPM, using an active diluter at 5 LPM in a CH technologies nose-only exposure chamber. Aerodynamic particle size was determined by a 7 stage impactor from Intox at 1 LPM. Each stage extracted with acetonitrile:water 1:1 with 0.05% TFA and analyzed by HPLC against an external standard.

[2] = Lung exposure in mice, nose-only chamber nebulization (Example 3); type: in vivo, Balb/c mice; settings: 30 min nebulization, immediately after
Protocol: A series of compositions for pulmonary delivery were prepared by making a 20% suspension of compound A in a 5% tyloxapol solution in water. Particle size reduction was achieved using a colloid mill (magicLAB®, MK module, for 6 hours @ 12,000 rpm, while maintaining a temperature below 50° C.). Samples at 4% compound A were prepared by dilution with DI water. A 0.4% compound A suspension in 0.1% tyloxapol solution, was made by dilution with SWFI (6.02 g of the 20% suspension was QS to 30.23 g with SWFI).
0.4% compound A suspension in 0.1% tyloxapol solution: 2.07 g of a 4% compound A suspension was diluted to 20 g with DI water.
0.04% compound A suspension in 0.01% tyloxapol solution: 2.03 g of a 0.4% compound A suspension was diluted to 20 g with DI water. 0.004% compound A suspension in 0.001% tyloxapol solution: 2.05 g of a 0.04% compound A suspension was diluted to 20 g with DI water.
Compositions were delivered via a nose-only chamber (CH Technologies) to Balb/c mice by nebulizing for 30 minutes the composition with a PARI LC plus at 3 LPM with a 5 LPM dilutor (of dry air), tissues, plasma and BALF (3 mL used of PBS) collected after sacrificing immediately after nebulization, and were analyzed by HPLC-MS.

[3] = Particle size of nebulized solution, 7 stage cascade impactor (Example 5); type: physicochemical; settings: nebulized solution ~3.3 mg/mL, pH ~3, tyloxapol/PVP 90F
Protocol: 36 mg of compound A was dissolved with the aid of 0.5 N HCl (QS to 1 g) under mixing and heat. 200 μL of this solution was mixed using a sonicator bath, if necessary with a separately prepared solution containing 1.8 mg of a 0.02% tyloxapol/2% PVP 90F and 34 μL of a 2 N NaOH, to give a final concentration of ˜3.3 mg/mL of compound A at a pH of ˜3.

[4] = formulation conc. 0.004%, individual animals 3A-3E
[5] = formulation conc. 0.04%, individual animals 2A-2E
[6] = formulation conc. 0.40%, individual animals 1A-1E

Nc1nc(N)c2nc(-c3cccc(O)c3)c(-c3cccc(O)c3)nc2n1 [Compound A, 6,7-bis(3-hydroxyphenyl)-pteridine-2,4-diamine]
MMAD (GSD) ([1]; 0.004% Compound A): 0.64 (2.35) | MMAD (GSD) ([1]; 0.04% Compound A): 0.69 (1.74) | MMAD (GSD) ([1]; 0.4% Compound A): 0.83 (1.87) | MMAD (GSD) ([1]; 4% Compound A, MMAD = mass median aerodynamic diameter, GSD = geometric standard deviation): 1.35 (1.98) | Compound A concentration BALF ([2]; formulation conc. 0.004%, Mean): 22.9 ± 34.0 ng/mL | Compound A concentration Lung ([2]; formulation conc. 0.004%, Mean): 0.12 ± 0.02 µg/g | Compound A concentration Plasma ([2]; formulation conc. 0.004%, Mean): <LLOQ | Compound A concentration BALF [2, 4]: 83.6 ng/mL and 10.0 ng/mL and 7.84 ng/mL and 7.82 ng/mL and 4.99 ng/mL | Compound A concentration Lung [2, 4]: 0.14 μg/g and 0.12 μg/g and 0.10 μg/g (2×) and 0.13 μg/g | Compound A concentration Plasma [2, 4]: <LLOQ | Compound A concentration BALF ([2]; formulation conc. 0.04%, Mean): 71.6 ± 38.4 ng/mL | Compound A concentration Lung ([2]; formulation conc. 0.04%, Mean): 1.48 ± 0.49 µg/g | Compound A concentration BALF [2, 5]: 62.6 ng/mL and 93 ng/mL and 92.1 ng/mL and 102 ng/mL and 8.19 ng/mL | Compound A concentration Lung [2, 5]: 2.3 µg/g and 1.0 µg/g and 1.5 µg/g and 1.4 µg/g and 1.3 µg/g | Compound A concentration Plasma [2, 5]: <LLOQ (4×) and 6.37 ng/mL | Compound A concentration BALF ([2]; formulation conc. 0.40%, Mean): 1870 ± 1902 ng/mL | Compound A concentration Lung ([2]; formulation conc. 0.40%, Mean): 6.7 ± 1.1 µg/g | Compound A concentration Plasma ([2]; formulation conc. 0.40%, Mean): 5.16 ± 2.39 ng/mL | Compound A concentration BALF [2, 6]: 1370 ng/mL and 5240 ng/mL and 1200 ng/mL and 804 ng/mL and 737 ng/mL | Compound A concentration Lung [2, 6]: 8.2 μg/g and 32.1(?) μg/g and 6.1 μg/g and 6.5 μg/g and 5.9 μg/g | Compound A concentration Plasma [2, 6]: 2.51 ng/mL and 3.98 ng/mL and 8.46 ng/mL and 6.73 ng/mL and 4.1 ng/mL | GSD [3]: 2.1 | MMAD [3]: ~1 μm
